{
  "source": "patent US20230174488A1",
  "about": "(priority 2020, published 2023)",
  "data": [
    {"target": "SARS-CoV-2 M^PRO (Severe acute respiratory syndrome coronavirus 2, UniProt P0DTD1)", "assay": "biochemical", "assay_type": "biochemical", "settings": "In vitro potency data; 30 min pre-incubation, 25 nM M^pro, 25 µM substrate; read-out: IC50", "units": {"IC50": "nM"}, "values": [
      {"smiles": "O=C(NC1CCC(F)(F)CC1)[C@@H](c1cncnc1)N(C(=O)CCl)c1ccc(-c2ccns2)cc1", "IC50": 60},
      {"smiles": "O=C(NC1CCC(F)(F)CC1)[C@H](c1cncnc1)N(C(=O)CCl)c1ccc(-c2ccns2)cc1", "IC50": 190},
      {"smiles": "N#Cc1cc(OC(F)(F)F)ccc1N(C(=O)C(F)Cl)C(C(=O)NC1CCC(F)(F)CC1)c1cncnc1", "note": "(mixture of isomers) [INSCoV-517C, 2-Chloro-N-(2-cyano-4-(trifluoromethoxy)phenyl)-N-(2-((4,4-difluorocyclohexyl)amino)-2-oxo-1-(pyrimidin-5-yl)ethyl)-2-fluoroacetamide]", "IC50": 110},
      {"smiles": "O=C(NC1CCC(F)(F)CC1)[C@H](c1cnccn1)N(C(=O)CCl)c1ccc(-c2ccno2)cc1", "note": "(racemic) [INSCoV-601H, 2-Chloro-N-(2-((4,4-difluorocyclohexyl)amino)-2-oxo-1-(pyrazin-2-yl)ethyl)-N-(4-(isoxazol-5-yl)phenyl)acetamide]", "IC50": 100},
      {"smiles": "O=C(NC1CCC(F)(F)CC1)C(c1ccnnc1)N(C(=O)CCl)c1ccc(-c2ccns2)cc1", "note": "(racemic) [INSCoV-601J]", "IC50": 120},
      {"smiles": "O=C(N[C@H]1CCOC1)C(c1cnccn1)N(C(=O)CCl)c1ccc(-c2ccno2)cc1", "note": "(mixture of isomers) [INSCoV-601Q, 2-Chloro-N-(4-(isoxazol-5-yl)phenyl)-N-(2-oxo-1-(pyrazin-2-yl)-2-(((S)-tetrahydrofuran-3-yl)amino)ethyl)acetamid]", "IC50": 150},
      {"smiles": "CC(C)(C)c1ccc(N(C(=O)CCl)C(C(=O)NC2CCCCC2)c2cccnc2)cc1", "note": "(single isomer, unassigned) [INSCoV-110A(1), 2-(4-tert-butyl-N-(2-chloroacetyl)anilino)-N-cyclohexyl-2-(3-pyridyl)acetamide]", "IC50": 1980},
      {"smiles": "CC(C)(C)c1ccc(N(C(=O)CCl)C(C(=O)NC2CCCCC2)c2cccnc2)cc1", "note": "(single isomer, unassigned) [INSCoV-110A(2), 2-(4-tert-butyl-N-(2-chloroacetyl)anilino)-N-cyclohexyl-2-(3-pyridyl)acetamide]", "IC50": 2150},
      {"smiles": "N#Cc1cc(OC(F)(F)F)ccc1N(C(=O)CCl)C(C(=O)NC1CCC(F)(F)CC1)c1cncnc1", "note": "(single isomer, unassigned) [INSCoV-517A(1A), 2-Chloro-N-(2-cyano-4-(trifluoromethoxy)phenyl)-N-(2-((4,4-difluorocyclohexyl)amino)-2-oxo-1-(pyrimidin-5-yl)ethyl)acetamide]", "IC50": 30},
      {"smiles": "N#Cc1cc(OC(F)(F)F)ccc1N(C(=O)CCl)C(C(=O)NC1CCC(F)(F)CC1)c1cncnc1", "note": "(single isomer, unassigned) [INSCoV-517A(1B), 2-Chloro-N-(2-cyano-4-(trifluoromethoxy)phenyl)-N-(2-((4,4-difluorocyclohexyl)amino)-2-oxo-1-(pyrimidin-5-yl)ethyl)acetamide]", "IC50": 3250},
      {"smiles": "N#Cc1cc(OC(F)(F)F)ccc1N(C(=O)C(F)Cl)C(C(=O)NC1CCC(F)(F)CC1)c1cncnc1", "note": "(single isomer, unassigned) [INSCoV-517C(1), 2-Chloro-N-(2-cyano-4-(trifluoromethoxy)phenyl)-N-(2-((4,4-difluorocyclohexyl)amino)-2-oxo-1-(pyrimidin-5-yl)ethyl)-2-fluoroacetamide]", "IC50": 11200},
      {"smiles": "N#Cc1cc(OC(F)(F)F)ccc1N(C(=O)[C@H](F)Cl)[C@@H](C(=O)NC1CCC(F)(F)CC1)c1cncnc1", "note": "(single isomer, unassigned) [INSCoV-517C(2), 2-Chloro-N-(2-cyano-4-(trifluoromethoxy)phenyl)-N-(2-((4,4-difluorocyclohexyl)amino)-2-oxo-1-(pyrimidin-5-yl)ethyl)-2-fluoroacetamide]", "IC50": 11400},
      {"smiles": "N#Cc1cc(OC(F)(F)F)ccc1N(C(=O)C(F)Cl)C(C(=O)NC1CCC(F)(F)CC1)c1cncnc1", "note": "(single isomer, unassigned) [INSCoV-517C(3), 2-Chloro-N-(2-cyano-4-(trifluoromethoxy)phenyl)-N-(2-((4,4-difluorocyclohexyl)amino)-2-oxo-1-(pyrimidin-5-yl)ethyl)-2-fluoroacetamide]", "IC50": 70},
      {"smiles": "N#Cc1cc(OC(F)(F)F)ccc1N(C(=O)[C@H](F)Cl)[C@@H](C(=O)NC1CCC(F)(F)CC1)c1cncnc1", "note": "(single isomer, unassigned) [INSCoV-517C(4), 2-Chloro-N-(2-cyano-4-(trifluoromethoxy)phenyl)-N-(2-((4,4-difluorocyclohexyl)amino)-2-oxo-1-(pyrimidin-5-yl)ethyl)-2-fluoroacetamide]", "IC50": "> 25000"},
      {"smiles": "O=C(NC1CCC(F)(F)CC1)C(c1cncnc1)N(C(=O)CCl)c1ccc(-c2ccno2)cc1", "note": "(single isomer, unassigned) [INSCoV-600J(2), 2-Chloro-N-(2-((4,4-difluorocyclohexyl)amino)-2-oxo-1-(pyrimidin-5-yl)ethyl)-N-(4-(isoxazol-5-yl)phenyl)acetamide]", "IC50": 530},
      {"smiles": "O=C(NC1CCC(F)(F)CC1)C(c1cncnc1)N(C(=O)CCl)c1ccc(-c2cncs2)cc1", "note": "(single isomer, unassigned) [INSCoV-600K(2), 2-Chloro-N-(2-((4,4-difluorocyclohexyl)amino)-2-oxo-1-(pyrimidin-5-yl)ethyl)-N-(4-(thiazol-5-yl)phenyl)acetamide]", "IC50": 430},
      {"smiles": "O=C(NC1CCC(F)(F)CC1)C(c1cncnc1)N(C(=O)[C@@H]1CO1)c1ccc(-c2cnco2)cc1", "note": "(single isomer, unassigned) [INSCoV-600R(2A)]", "IC50": 2930},
      {"smiles": "O=C(NC1CCC(F)(F)CC1)C(c1cnccn1)N(C(=O)CCl)c1ccc(-c2cncs2)cc1", "note": "(single isomer, unassigned) [INSCoV-601G(1), 2-Chloro-N-(2-((4,4-difluorocyclohexyl)amino)-2-oxo-1-(pyrazin-2-yl)ethyl)-N-(4-(thiazol-5-yl)phenyl)acetamide]", "IC50": 60},
      {"smiles": "O=C(NC1CCC(F)(F)CC1)C(c1cnccn1)N(C(=O)CCl)c1ccc(-c2cncs2)cc1", "note": "(single isomer, unassigned) [INSCoV-601G(2), 2-Chloro-N-(2-((4,4-difluorocyclohexyl)amino)-2-oxo-1-(pyrazin-2-yl)ethyl)-N-(4-(thiazol-5-yl)phenyl)acetamide]", "IC50": 270},
      {"smiles": "O=C(NC1CCC(F)(F)CC1)C(c1cnccn1)N(C(=O)CCl)c1ccc(-c2ccns2)cc1", "note": "(single isomer, unassigned) [INSCoV-601I(2), 2-chloro-N-(2-((4,4-difluorocyclohexyl)amino)-2-oxo-1-(pyrazin-2-yl)ethyl)-N-(4-(isothiazol-5-yl)phenyl)acetamide]", "IC50": 210},
      {"smiles": "CC(C(=O)NC1CCC(F)(F)CC1)(c1cnccn1)N(C(=O)CCl)c1ccc(-c2ccns2)cc1", "note": "(single isomer, unassigned) [INSCoV-601N(1), 2-(2-Chloro-N-(4-(isothiazol-5-yl)phenyl)acetamido)-N-(4,4-difluorocyclohexyl)-2-(pyrazin-2-yl)propanamide]", "IC50": 130},
      {"smiles": "CC(C(=O)NC1CCC(F)(F)CC1)(c1cnccn1)N(C(=O)CCl)c1ccc(-c2ccns2)cc1", "note": "(single isomer, unassigned) [INSCoV-601N(2), 2-(2-Chloro-N-(4-(isothiazol-5-yl)phenyl)acetamido)-N-(4,4-difluorocyclohexyl)-2-(pyrazin-2-yl)propanamide]", "IC50": 3490},
      {"smiles": "CC(C(=O)NC1CCC(F)(F)CC1)(c1cncnc1)N(C(=O)CCl)c1ccc(-c2ccno2)cc1", "note": "(single isomer, unassigned) [INSCoV-601P(1B), 2-(2-Chloro-N-(4-(isoxazol-5-yl)phenyl)acetamido)-N-(4,4-difluorocyclohexyl)-2-(pyrimidin-5-yl)propanamide]", "IC50": 13700},
      {"smiles": "O=C(N[C@H]1CCC(F)(F)C1)C(c1cncnc1)N(C(=O)CCl)c1ccc(-c2cncs2)cc1", "note": "(single isomer, unassigned) [INSCoV-601S(1B)]", "IC50": 980},
      {"smiles": "O=C(NC1CCC(F)(F)CC1)[C@H](c1cncnc1)N(C(=O)[C@H](F)Cl)c1ccc(-c2cncs2)cc1", "note": "(single isomer, unassigned) [INSCoV-614(1A), 2-Chloro-N-(2-((4,4-difluorocyclohexyl)amino)-2-oxo-1-(pyrimidin-5-yl)ethyl)-2-fluoro-N-(4-(thiazol-5-yl)phenyl)acetamide]", "IC50": "> 25000"},
      {"smiles": "O=C(NC1CCC(F)(F)CC1)[C@H](c1cncnc1)N(C(=O)[C@H](F)Cl)c1ccc(-c2cncs2)cc1", "note": "(single isomer, unassigned) [INSCoV-614(2A), 2-Chloro-N-(2-((4,4-difluorocyclohexyl)amino)-2-oxo-1-(pyrimidin-5-yl)ethyl)-2-fluoro-N-(4-(thiazol-5-yl)phenyl)acetamide]", "IC50": 6940},
      {"smiles": "O=C(NC1CCC(F)(F)CC1)[C@H](c1cncnc1)N(C(=O)[C@H](F)Cl)c1ccc(-c2cncs2)cc1", "note": "(single isomer, unassigned) [INSCoV-614(2B), 2-Chloro-N-(2-((4,4-difluorocyclohexyl)amino)-2-oxo-1-(pyrimidin-5-yl)ethyl)-2-fluoro-N-(4-(thiazol-5-yl)phenyl)acetamide]", "IC50": 1700},
      {"smiles": "O=C(NC1CCC(F)(F)CC1)[C@@H](c1cncnc1)N(C(=O)[C@H](F)Cl)c1ccc(-c2ccno2)cc1", "note": "(single isomer, unassigned) [INSCoV-614A(1A), 2-Chloro-N-(2-((4,4-difluorocyclohexyl)amino)-2-oxo-1-(pyrimidin-5-yl)ethyl)-2-fluoro-N-(4-(isoxazol-5-yl)phenyl)acetamide]", "IC50": 6740},
      {"smiles": "O=C(NC1CCC(F)(F)CC1)[C@@H](c1cncnc1)N(C(=O)[C@H](F)Cl)c1ccc(-c2ccno2)cc1", "note": "(single isomer, unassigned) [INSCoV-614A(1B), 2-Chloro-N-(2-((4,4-difluorocyclohexyl)amino)-2-oxo-1-(pyrimidin-5-yl)ethyl)-2-fluoro-N-(4-(isoxazol-5-yl)phenyl)acetamide]", "IC50": 5050},
      {"smiles": "O=C(NC1CCC(F)(F)CC1)[C@@H](c1cncnc1)N(C(=O)[C@H](F)Cl)c1ccc(-c2ccno2)cc1", "note": "(single isomer, unassigned) [INSCoV-614A(2B), 2-Chloro-N-(2-((4,4-difluorocyclohexyl)amino)-2-oxo-1-(pyrimidin-5-yl)ethyl)-2-fluoro-N-(4-(isoxazol-5-yl)phenyl)acetamide]", "IC50": 9110},
      {"smiles": "C=CS(=O)(=O)N(c1ccc(C(C)(C)C)cc1)[C@@H](C(=O)NC1CCCCC1)c1cccnc1", "note": "[INSCoV-110-1]", "IC50": 36000}
    ]}
  ]
}
